In one series the test system is VACV-WR-GFP virus. The experiment in a line: microbe, parasite or virus in culture. Format: cell-based. Conditions: Orthopoxvirus vaccinia, HeLa, 24 h; for IC50: read-out: IC50 (50% inhibition of viral spread); for IC90: read-out: IC90 (90% inhibition of viral spread).
A further series deals with VACV WR-Luc virus. Format: cell-based.
A further series concerns VACV IHDJ virus. Type of series: cell-based, vaccinia virus.
The next series deals with VACV WR A4-YFP. Format: cell-based, vaccinia virus.
For the next series, the system named is VACV WR. Format: cell-based, vaccinia virus.
A further series concerns the target luciferase (Photinus pyralis, UniProt P08659). Type of series: biochemical.
Another series in a line: in vitro. Conditions: human.

“Also recorded” adds a separate entry of the source.

This is an account of results in PMC7190985 (Frontiers in Microbiology, 2020).

luciferase, sequence (P08659 whole entry): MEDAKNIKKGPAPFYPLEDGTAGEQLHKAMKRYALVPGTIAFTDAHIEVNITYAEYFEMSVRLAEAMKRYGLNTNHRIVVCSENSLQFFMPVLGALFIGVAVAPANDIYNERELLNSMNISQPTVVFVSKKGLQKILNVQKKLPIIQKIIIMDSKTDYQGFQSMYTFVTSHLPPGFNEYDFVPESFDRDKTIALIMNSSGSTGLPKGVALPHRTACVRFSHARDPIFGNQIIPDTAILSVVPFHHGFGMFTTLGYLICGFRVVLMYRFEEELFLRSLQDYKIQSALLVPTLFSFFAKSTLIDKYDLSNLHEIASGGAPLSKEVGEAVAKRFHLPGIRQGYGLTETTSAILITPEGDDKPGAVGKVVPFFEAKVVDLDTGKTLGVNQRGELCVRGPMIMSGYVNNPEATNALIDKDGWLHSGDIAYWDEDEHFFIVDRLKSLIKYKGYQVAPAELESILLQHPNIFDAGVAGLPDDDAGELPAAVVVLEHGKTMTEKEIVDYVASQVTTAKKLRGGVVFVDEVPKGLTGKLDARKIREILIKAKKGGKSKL

Take `O=C1CN(C(=O)c2nccs2)C(c2cccc(Cl)c2)c2cc(Br)ccc2N1` (centres unmarked) [PA104]: in the series with VACV-WR-GFP virus, the IC50 (commonly the concentration needed to halve the response being measured) came out at 500 nM and the IC90 (usually the concentration at which the effect reaches the 90% level) was found to be 1300 nM. In the series on VACV WR-Luc virus, the “luciferase activity (viral entry)” value was “observable reduction in luciferase activity” and the “viral entry (luciferase RLU)” value is given as “a decrease in viral entry was observed”. Moreover, the “MV yield / MV formation” value with VACV IHDJ virus is reported as “small reduction in MV yield”. Besides, in the series on VACV WR A4-YFP, the “virus-loaded actin tails per cell” value was “significant decrease in virus-loaded tails”. Further, the “viral plaque size, wild-type virus” value in the series with VACV WR is listed as “maximal inhibition of plaque size”. Besides, the “luciferase enzyme activity (RLU)” value on luciferase is on record as “does not impact luciferase enzyme activity”. In the series “in vitro”, the CC50 was more than 400000 nM.
Turning to `Cc1ccc(/C=N/c2ccccc2C(=O)Nc2ccccc2)s1` [Retro 2], in the series on VACV-WR-GFP virus, the IC50 stood at 2200 nM and the IC90 amounted to 5500 nM. The CC50 in the series “in vitro” was more than 400000 nM.
In the case of `O=C1CN(C(=O)c2nccs2)C(c2cc(Cl)cc(Cl)c2)c2cc(Cl)ccc2N1` (centres unmarked) [PA24], in the series with VACV-WR-GFP virus, the IC50 is 1000 nM and the IC90 stood at 1800 nM. The “viral entry (luciferase RLU)” value in the series on VACV WR-Luc virus is recorded as “did not markedly decrease viral entry; also recorded: reduced viral entry”. The “virus-loaded actin tails per cell” value with VACV WR A4-YFP is given as “significant decrease in virus-loaded tails”. In “in vitro”, this compound yielded a CC50 of more than 400000 nM.
In the case of `O=C(NN1C(=O)[C@@H]2[C@@H]3C=C[C@@H]([C@H]4C[C@@H]34)[C@@H]2C1=O)c1ccc(C(F)(F)F)cc1` [ST-246], in the series on VACV-WR-GFP virus, the IC50 is 40 nM and the concentration for an effect of 90% (IC90) worked out at 100 nM. Further, the CC50 in the series “in vitro” was more than 400000 nM.
For the compound `CCC(=O)N1CC(=O)Nc2ccc(Br)cc2C1c1ccccc1` (centres unmarked) [Retro 1], in the series on VACV-WR-GFP virus, the IC50 is 3000 nM and the IC90 worked out at 7200 nM. The compound further registered a CC50 in the series “in vitro” of more than 400000 nM.
